The structures appear in SMILES notation. Where two headings read alike, the source gives them in different places.

Holding throughout (test): biochemical
Common to all, as to format: binding

Experiment [1] deals with T1, panel of 442 kinases (Homo sapiens, UniProt Q15569).
T1 construct: purchased Ambit Biosciences (scanMAXX KINOMEscan)
The following applies: kinase TESK1; for remaining activity at 1 µM: read-out: TESK1 (% of control at 1 µM).

Experiment [2] addresses T2, panel of 442 kinases (Homo sapiens, UniProt Q92630).
T2 construct: purchased Ambit Biosciences (scanMAXX KINOMEscan)
T2 sequence (Q92630 1-601): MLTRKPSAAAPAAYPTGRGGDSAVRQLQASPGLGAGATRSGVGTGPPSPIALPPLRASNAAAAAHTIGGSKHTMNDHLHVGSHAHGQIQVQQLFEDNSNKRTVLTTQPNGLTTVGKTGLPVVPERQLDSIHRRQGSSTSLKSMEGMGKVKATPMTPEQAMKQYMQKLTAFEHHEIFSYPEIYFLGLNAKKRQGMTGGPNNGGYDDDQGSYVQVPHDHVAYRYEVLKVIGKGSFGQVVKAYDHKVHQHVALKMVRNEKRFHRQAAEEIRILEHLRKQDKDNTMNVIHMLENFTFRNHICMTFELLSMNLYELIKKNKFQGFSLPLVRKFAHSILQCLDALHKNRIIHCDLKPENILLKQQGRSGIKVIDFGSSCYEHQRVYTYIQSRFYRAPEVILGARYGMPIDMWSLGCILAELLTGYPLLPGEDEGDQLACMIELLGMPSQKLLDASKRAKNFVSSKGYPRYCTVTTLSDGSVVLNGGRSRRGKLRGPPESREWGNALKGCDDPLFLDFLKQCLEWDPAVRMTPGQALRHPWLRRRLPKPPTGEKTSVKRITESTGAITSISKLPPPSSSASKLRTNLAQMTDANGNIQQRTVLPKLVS
Particulars: DYRK2; for remaining activity at 1 µM: read-out: % of control at 1 µM.

Experiment [3] deals with T3, panel of 442 kinases (Homo sapiens, UniProt P04626).
T3 construct: purchased Ambit Biosciences (scanMAXX KINOMEscan)
T3 sequence (P04626 23-1255): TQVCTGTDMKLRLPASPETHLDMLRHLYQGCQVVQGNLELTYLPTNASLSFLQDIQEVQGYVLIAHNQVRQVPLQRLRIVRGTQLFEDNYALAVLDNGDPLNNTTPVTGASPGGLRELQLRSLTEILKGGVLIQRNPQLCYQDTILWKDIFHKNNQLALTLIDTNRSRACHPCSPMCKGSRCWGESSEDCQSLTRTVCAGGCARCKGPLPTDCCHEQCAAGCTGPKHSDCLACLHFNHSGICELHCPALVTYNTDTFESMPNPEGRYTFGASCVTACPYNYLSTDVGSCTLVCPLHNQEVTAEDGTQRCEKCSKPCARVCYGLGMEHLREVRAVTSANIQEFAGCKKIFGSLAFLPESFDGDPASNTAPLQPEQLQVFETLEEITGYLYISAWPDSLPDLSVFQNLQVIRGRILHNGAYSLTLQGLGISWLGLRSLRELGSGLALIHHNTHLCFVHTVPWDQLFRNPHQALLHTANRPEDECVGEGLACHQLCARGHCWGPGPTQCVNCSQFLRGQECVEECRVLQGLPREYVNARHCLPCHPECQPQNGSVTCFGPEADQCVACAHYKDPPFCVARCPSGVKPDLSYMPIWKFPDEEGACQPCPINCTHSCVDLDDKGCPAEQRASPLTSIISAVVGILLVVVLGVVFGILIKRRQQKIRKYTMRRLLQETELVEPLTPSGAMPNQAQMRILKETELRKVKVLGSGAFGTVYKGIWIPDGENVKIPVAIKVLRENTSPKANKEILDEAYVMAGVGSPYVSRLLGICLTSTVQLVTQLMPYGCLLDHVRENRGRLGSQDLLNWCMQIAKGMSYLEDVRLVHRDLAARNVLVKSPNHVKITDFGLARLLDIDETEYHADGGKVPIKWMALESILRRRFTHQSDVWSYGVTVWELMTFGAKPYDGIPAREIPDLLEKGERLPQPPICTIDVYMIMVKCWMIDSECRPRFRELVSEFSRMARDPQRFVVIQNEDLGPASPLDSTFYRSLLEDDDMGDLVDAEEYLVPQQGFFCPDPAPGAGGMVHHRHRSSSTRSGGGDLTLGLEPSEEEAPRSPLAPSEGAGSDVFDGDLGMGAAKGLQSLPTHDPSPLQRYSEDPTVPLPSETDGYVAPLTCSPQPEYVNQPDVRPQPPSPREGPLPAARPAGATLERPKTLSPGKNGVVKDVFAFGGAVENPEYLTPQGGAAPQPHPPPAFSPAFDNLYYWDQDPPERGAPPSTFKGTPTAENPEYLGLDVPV
Particulars: ERBB2; for remaining activity at 1 µM: read-out: % of control at 1 µM.

Experiment [4] has as its target T4, panel of 442 kinases (Homo sapiens, UniProt Q00536).
T4 construct: purchased Ambit Biosciences (scanMAXX KINOMEscan)
The following applies: kinase PCTK1; for remaining activity at 1 µM: read-out: % of control at 1 µM.

The target in experiment [5] is T5, panel of 442 kinases (Homo sapiens, UniProt P07949).
T5 construct: purchased Ambit Biosciences (scanMAXX KINOMEscan)
T5 sequence (P07949 29-1114): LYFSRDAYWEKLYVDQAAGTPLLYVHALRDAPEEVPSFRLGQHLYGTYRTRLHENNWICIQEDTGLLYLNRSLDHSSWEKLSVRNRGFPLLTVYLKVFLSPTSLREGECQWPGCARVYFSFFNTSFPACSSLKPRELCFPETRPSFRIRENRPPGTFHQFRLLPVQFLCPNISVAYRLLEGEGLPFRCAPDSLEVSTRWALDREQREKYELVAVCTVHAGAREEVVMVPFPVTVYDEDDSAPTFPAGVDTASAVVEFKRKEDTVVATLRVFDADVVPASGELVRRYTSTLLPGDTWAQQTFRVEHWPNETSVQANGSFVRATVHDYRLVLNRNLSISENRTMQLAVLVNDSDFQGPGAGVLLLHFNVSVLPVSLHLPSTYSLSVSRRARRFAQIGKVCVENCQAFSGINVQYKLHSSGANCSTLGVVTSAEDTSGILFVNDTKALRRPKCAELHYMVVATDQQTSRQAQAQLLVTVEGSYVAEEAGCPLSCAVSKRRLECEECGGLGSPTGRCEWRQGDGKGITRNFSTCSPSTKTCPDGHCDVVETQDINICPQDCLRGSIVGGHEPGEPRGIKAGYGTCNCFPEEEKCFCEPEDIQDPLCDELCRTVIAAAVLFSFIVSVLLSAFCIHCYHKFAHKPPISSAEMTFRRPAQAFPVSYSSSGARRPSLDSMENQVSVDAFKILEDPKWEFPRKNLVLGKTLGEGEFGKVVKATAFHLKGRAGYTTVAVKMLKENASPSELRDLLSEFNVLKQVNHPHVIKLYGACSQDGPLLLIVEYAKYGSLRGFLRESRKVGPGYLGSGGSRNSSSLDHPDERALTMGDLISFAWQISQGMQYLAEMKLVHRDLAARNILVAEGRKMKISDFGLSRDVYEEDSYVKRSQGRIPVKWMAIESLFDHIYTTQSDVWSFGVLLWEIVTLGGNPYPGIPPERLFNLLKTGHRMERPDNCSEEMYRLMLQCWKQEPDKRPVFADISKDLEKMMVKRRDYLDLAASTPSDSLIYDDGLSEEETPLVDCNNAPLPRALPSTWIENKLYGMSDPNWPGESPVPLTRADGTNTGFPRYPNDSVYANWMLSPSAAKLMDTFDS
The following applies: kinase RET; for remaining activity at 1 µM: read-out: RET (% of control at 1 µM).

The target in experiment [6] is T6, panel of 442 kinases (Homo sapiens, UniProt Q02156).
T6 construct: purchased Ambit Biosciences (scanMAXX KINOMEscan)
T6 sequence (Q02156 1-737): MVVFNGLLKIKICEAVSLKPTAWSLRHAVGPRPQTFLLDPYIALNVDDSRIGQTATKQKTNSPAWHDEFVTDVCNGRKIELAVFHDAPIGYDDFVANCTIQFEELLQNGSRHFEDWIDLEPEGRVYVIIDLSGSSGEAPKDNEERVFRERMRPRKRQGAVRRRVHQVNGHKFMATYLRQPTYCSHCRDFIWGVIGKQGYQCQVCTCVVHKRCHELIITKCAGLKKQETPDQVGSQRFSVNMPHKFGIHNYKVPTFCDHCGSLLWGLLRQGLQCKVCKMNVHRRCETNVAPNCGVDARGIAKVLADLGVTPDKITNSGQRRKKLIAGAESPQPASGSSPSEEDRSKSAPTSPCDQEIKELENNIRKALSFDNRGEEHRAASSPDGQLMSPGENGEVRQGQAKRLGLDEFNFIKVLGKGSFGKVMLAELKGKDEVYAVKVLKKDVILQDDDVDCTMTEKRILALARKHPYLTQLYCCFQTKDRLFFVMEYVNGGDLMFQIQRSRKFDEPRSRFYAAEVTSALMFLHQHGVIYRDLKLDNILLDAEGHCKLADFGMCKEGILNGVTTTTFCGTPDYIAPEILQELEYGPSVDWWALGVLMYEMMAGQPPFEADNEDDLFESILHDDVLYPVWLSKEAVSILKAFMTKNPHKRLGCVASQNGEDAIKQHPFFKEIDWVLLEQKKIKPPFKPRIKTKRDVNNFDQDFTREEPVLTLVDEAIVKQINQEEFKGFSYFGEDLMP
The following applies: kinase PRKCE; for remaining activity at 1 µM: read-out: PRKCE (% of control at 1 µM).

For experiment [7], the target named is T7, panel of 442 kinases (Homo sapiens, UniProt P00519, F317I).
T7 construct: purchased Ambit Biosciences (scanMAXX KINOMEscan)
Particulars: for remaining activity at 1 µM: read-out: % of control at 1 µM; for remaining activity at 10 µM: read-out: % of control at 10 µM.

Experiment [8] addresses T8, panel of 442 kinases (Homo sapiens, UniProt P00519, H396P).
T8 construct: purchased Ambit Biosciences (scanMAXX KINOMEscan)
Particulars: for remaining activity at 1 µM: read-out: % of control at 1 µM; for remaining activity at 10 µM: read-out: % of control at 10 µM.

The target in experiment [9] is T9, panel of 442 kinases (Homo sapiens, UniProt P0C264).
T9 construct: purchased Ambit Biosciences (scanMAXX KINOMEscan)
T9 sequence (P0C264 1-359): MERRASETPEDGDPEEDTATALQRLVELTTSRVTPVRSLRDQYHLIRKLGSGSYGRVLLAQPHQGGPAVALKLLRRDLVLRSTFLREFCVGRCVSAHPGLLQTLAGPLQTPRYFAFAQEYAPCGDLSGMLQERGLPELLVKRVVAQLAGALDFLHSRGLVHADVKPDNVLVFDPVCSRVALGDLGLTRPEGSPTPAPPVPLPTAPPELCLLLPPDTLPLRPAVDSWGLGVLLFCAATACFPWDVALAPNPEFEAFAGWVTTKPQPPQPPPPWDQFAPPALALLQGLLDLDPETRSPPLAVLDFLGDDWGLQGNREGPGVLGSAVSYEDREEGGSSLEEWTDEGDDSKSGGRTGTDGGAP
Particulars: kinase SgK110; for remaining activity at 1 µM: read-out: SgK110 (% of control at 1 µM).

Where [10] appears, read: 10 µM, read-out: % of control at 10 µM.

T4 sequence (Q00536 whole entry): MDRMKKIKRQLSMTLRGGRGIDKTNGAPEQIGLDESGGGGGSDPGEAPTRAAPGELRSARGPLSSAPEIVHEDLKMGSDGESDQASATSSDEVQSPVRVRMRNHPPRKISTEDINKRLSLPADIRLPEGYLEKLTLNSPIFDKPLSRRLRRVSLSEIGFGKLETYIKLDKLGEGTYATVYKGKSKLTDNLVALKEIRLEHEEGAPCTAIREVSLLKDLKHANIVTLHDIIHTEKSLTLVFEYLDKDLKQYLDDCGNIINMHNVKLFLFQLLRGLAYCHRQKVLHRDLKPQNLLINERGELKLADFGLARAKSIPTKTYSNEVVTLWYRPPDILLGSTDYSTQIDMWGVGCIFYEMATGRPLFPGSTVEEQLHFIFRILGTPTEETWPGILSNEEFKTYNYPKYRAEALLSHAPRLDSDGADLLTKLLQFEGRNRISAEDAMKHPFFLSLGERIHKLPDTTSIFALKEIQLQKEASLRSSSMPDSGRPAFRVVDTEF
T1 sequence (Q15569 whole entry): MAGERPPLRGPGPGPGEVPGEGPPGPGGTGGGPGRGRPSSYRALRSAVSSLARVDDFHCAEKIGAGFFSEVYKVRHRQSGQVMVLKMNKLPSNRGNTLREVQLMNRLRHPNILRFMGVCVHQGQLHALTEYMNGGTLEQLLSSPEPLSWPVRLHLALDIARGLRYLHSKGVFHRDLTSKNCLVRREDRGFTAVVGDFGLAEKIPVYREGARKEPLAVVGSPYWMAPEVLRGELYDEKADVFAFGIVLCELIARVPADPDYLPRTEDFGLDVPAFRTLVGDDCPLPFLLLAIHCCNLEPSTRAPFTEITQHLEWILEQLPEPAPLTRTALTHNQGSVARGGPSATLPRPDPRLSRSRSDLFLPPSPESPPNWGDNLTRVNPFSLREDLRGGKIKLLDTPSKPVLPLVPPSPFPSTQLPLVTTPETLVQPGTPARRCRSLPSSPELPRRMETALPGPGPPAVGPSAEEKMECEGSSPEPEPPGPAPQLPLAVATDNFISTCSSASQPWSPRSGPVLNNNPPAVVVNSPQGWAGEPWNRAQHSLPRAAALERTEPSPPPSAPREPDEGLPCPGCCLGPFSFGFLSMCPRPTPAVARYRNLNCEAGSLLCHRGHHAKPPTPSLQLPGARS

As to `Nc1cc(C(F)(F)F)c(-c2cc(N3CCOCC3)nc(N3CCOCC3)n2)cn1` [Buparlisib], the remaining activity at 1 µM came to 92% in experiment [1]; 80% in experiment [2]; 85% in experiment [3]; 79% in experiment [4]; 97% in experiment [5]; 97% in [6]. Besides, the remaining activity at 1 µM was found to be 100% in experiment [7] (ABL1(F317I)-nonphosphorylated); 78% in [7] (ABL1(F317I)-phosphorylated); 99% in [8] (ABL1(H396P)-nonphosphorylated); 96% in [8] (ABL1(H396P)-phosphorylated); 91% in experiment [9]. The remaining activity at 10 µM was 100% in [1] (10 µM, read-out: TESK1 (% of control at 10 µM)); 100% in experiment [2] (setting [10]); 100% in experiment [3] (setting [10]); 100% in experiment [4] (setting [10]); 100% in [5] (10 µM, read-out: RET (% of control at 10 µM)); 100% in experiment [6] (10 µM, read-out: PRKCE (% of control at 10 µM)). The remaining activity at 10 µM in experiment [7] (ABL1(F317I)-nonphosphorylated) turned out to be 100%; in experiment [7] (ABL1(F317I)-phosphorylated), 100%; in [8] (ABL1(H396P)-nonphosphorylated) it was 100%; in experiment [8] (ABL1(H396P)-phosphorylated), 100%; in [9] (10 µM, read-out: SgK110 (% of control at 10 µM)), 100%.
As to `Cn1c(=O)n(-c2ccc(C(C)(C)C#N)cc2)c2c3cc(-c4cnc5ccccc5c4)ccc3ncc21` [Dactolisib, 2-methyl-2-[4-(3-methyl-2-oxo-8-quinolin-3-yl-2,3-dihydroimidazo[4,5-c]quinolin-1-yl)-phenyl] propionitrile], the remaining activity at 1 µM in [1] came out at 100%; in experiment [2] it was 67%; in experiment [3], 100%; in [4], 100%; in experiment [5], 100%; in experiment [6], 78%. In addition, the remaining activity at 1 µM in experiment [7] (ABL1(F317I)-nonphosphorylated) came out at 100%; in [7] (ABL1(F317I)-phosphorylated) it was 100%; in experiment [8] (ABL1(H396P)-nonphosphorylated), 70%; in experiment [8] (ABL1(H396P)-phosphorylated), 79%; in [9], 100%.
Regarding `FC(F)c1nc2ccccc2n1-c1nc(N2CCOCC2)nc(N2CCOCC2)n1` [ZSTK474, 2-(difluoromethyl)-1-[4,6-di(4-morpholinyl)-1,3,5-triazin-2-yl]-1H-benzimidazole], the remaining activity at 1 µM in [1] stood at 96%; in experiment [2], 78%; in experiment [3], 100%; in experiment [4] it was 95%; in experiment [5], 100%; in experiment [6], 100%. In addition, the remaining activity at 1 µM turned out to be 100% in experiment [7] (ABL1(F317I)-nonphosphorylated); 88% in experiment [7] (ABL1(F317I)-phosphorylated); 100% in experiment [8] (ABL1(H396P)-nonphosphorylated); 100% in experiment [8] (ABL1(H396P)-phosphorylated); 100% in experiment [9].
Turning to `COc1ncc(-c2ccc3nccc(-c4ccnnc4)c3c2)cc1NS(=O)(=O)c1ccc(F)cc1F` [Omipalisib], the remaining activity at 1 µM in [1] worked out at 73%; in [2] it was 88%; in [3] it was 100%; in [4], 96%; in experiment [5] it was 94%; in experiment [6], 100%. For the same molecule, the remaining activity at 1 µM in experiment [7] (ABL1(F317I)-nonphosphorylated), in experiment [7] (ABL1(F317I)-phosphorylated), in [8] (ABL1(H396P)-nonphosphorylated), in experiment [8] (ABL1(H396P)-phosphorylated) and in experiment [9] was 100% each time.

(Values after article PMC5564600 (Oncotarget, 2017).)
